Experimental data taken from patent US11986528B2, “Use of a mixture of lauroyl macrogolglyceride and polyethylene glycol as an excipient” (GATTEFOSSE SAS, priority 2020, dated 2024).
Converted amounts (≈) assume the structure as drawn.

Key:
[1] = dissolution (liberation) of terfenadine from capsules, FIG. 4; format: physicochemical; settings: after 120 minutes; dose 60 mg
Method: Another active principle, terfenadine, was formulated with Gelucire® 44/14. The mixture was cast into a capsule in a manner that was similar to that of Example 1 above which used piroxicam.
The dose was 60 mg, for a total of 680 mg of formulation.
The graph of FIG. 4 was therefore obtained, illustrating the liberation L (%) of the active principle as a function of time t in minutes, in which: • the curve C1 (invention) corresponds to a mixture of terfenadine/Gelucire® 44/14/PEG 6000, in which the ratio by weight of Gelucire® 44/14/PEG 6000 is 65/35: • the curve C2 (invention) corresponds to a mixture of terfenadine/Gelucire® 44/14/PEG 6000, in which the ratio by weight of Gelucire® 44/14/PEG 6000 is 60/40; • the curve C3 (control 1) corresponds to a mixture of terfenadine/PEG 6000; • the curve C4 (control 2) corresponds to terfenadine alone.

[2] = water at 25° C.; cited from earlier work

liberation L of terfenadine [1]: below 10%
Structure (SMILES): CC(C)(C)c1ccc(C(O)CCCN2CCC(C(O)(c3ccccc3)c3ccccc3)CC2)cc1 (centres unmarked) [terfenadine]
solubility in water [2]: 250 µg/mL (≈ 530 µM)
